species on record: Homo sapiens; assay: Protac activity at E3 ubiquitin ligase/alpha-syn expressed in human HEK293/TREx A53T cells assessed as alpha-synuclein degradation measured as amount of protein remaining at 1 uM by ELISA relative to control; format: cell-based

Row | SMILES | Activity
1 | O=C1CCC(N2C(=O)c3ccc(N4CCN(CCCO[C@H]5C[C@H](Oc6ccc7c(c6)Sc6cc([N+](=O)[O-])ccc6N7)C5)CC4)cc3C2=O)C(=O)N1 (stereo partly specified) | 35 to 70%
2 | Cc1ncsc1-c1ccc([C@H](C)NC(=O)[C@@H]2C[C@@H](O)CN2C(=O)[C@@H](NC(=O)COCCOCCOc2ccc(CN3C(=O)/C(=C/C=C/c4ccc([N+](=O)[O-])cc4)c4ccccc43)cc2)C(C)(C)C)cc1 | 35 to 70%
3 | CNc1ccc(-c2nc3ccc(OCCOCCOCC(=O)N[C@H](C(=O)N4C[C@H](O)C[C@H]4C(=O)N[C@@H](C)c4ccc(-c5scnc5C)cc4)C(C)(C)C)cc3s2)cc1 | < 35%
4 | CNc1ccc(-c2nc3ccc(OCCOCCOCCOCCOCCOCCOCC(=O)N[C@H](C(=O)N4C[C@H](O)C[C@H]4C(=O)N[C@@H](C)c4ccc(-c5scnc5C)cc4)C(C)(C)C)cc3s2)cc1 | < 35%
5 | CNc1ccc(-c2nc3ccc(OCCOCCOCCOCCOCCOCC(=O)N[C@H](C(=O)N4C[C@H](O)C[C@H]4C(=O)N[C@@H](C)c4ccc(-c5scnc5C)cc4)C(C)(C)C)cc3s2)cc1 | < 35%
6 | Cc1ncsc1-c1ccc([C@H](C)NC(=O)[C@@H]2C[C@@H](O)CN2C(=O)[C@@H](NC(=O)CN2CCN(CCN3CCC(O[C@H]4C[C@H](Oc5ccc6c(c5)Sc5cc([N+](=O)[O-])ccc5N6)C4)CC3)CC2)C(C)(C)C)cc1 | < 35%

Reference: ChEMBL document CHEMBL4616686, “PROTAC Compounds Targeting α-Synuclein Protein for Treating Neurogenerative Disorders: Alzheimer's and Parkinson's Diseases” (ACS Med Chem Lett, 2020)
